Results as given in ChEMBL document CHEMBL3297697, “Property- and structure-guided discovery of a tetrahydroindazole series of interleukin-2 inducible T-cell kinase inhibitors” (J Med Chem, 2014).
In brackets after ≈: the same amount, converted by molar mass.

Columns and labels:
[1] = target: T1, Aurora kinase A (Homo sapiens, UniProt O14965)
T1 sequence (O14965 whole entry): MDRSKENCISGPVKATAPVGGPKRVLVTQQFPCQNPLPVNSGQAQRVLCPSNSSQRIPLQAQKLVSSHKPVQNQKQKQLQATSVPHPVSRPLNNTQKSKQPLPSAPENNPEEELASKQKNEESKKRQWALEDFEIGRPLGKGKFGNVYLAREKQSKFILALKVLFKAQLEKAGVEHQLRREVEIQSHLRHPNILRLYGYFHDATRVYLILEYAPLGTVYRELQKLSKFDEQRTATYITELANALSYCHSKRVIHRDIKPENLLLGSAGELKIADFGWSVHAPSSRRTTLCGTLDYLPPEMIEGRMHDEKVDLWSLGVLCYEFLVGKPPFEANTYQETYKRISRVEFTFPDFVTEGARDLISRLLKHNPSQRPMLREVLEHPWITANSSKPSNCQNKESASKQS

[2] = physchem; conditions: PBS buffer, pH 7.4, Kinetic_solubility
[3] = physchem; conditions: 1-octanol/phosphate buffer, pH 7.4, logD
[4] = Apparent permeability across MDCK cells; type: ADME, cell-based, Canis lupus familiaris; conditions: dog
[5] = buffer, pH 7.4, 24 h, 10000 µM
[6] = species on record: Homo sapiens; assay: Selectivity ratio of Ki for human His-tagged full length AURKAto Ki for GST-tagged full length ITK (unknown origin)
[7] = target: T2, Tyrosine-protein kinase ITK/TSK (Homo sapiens, UniProt Q08881)
T2 sequence (Q08881 whole entry): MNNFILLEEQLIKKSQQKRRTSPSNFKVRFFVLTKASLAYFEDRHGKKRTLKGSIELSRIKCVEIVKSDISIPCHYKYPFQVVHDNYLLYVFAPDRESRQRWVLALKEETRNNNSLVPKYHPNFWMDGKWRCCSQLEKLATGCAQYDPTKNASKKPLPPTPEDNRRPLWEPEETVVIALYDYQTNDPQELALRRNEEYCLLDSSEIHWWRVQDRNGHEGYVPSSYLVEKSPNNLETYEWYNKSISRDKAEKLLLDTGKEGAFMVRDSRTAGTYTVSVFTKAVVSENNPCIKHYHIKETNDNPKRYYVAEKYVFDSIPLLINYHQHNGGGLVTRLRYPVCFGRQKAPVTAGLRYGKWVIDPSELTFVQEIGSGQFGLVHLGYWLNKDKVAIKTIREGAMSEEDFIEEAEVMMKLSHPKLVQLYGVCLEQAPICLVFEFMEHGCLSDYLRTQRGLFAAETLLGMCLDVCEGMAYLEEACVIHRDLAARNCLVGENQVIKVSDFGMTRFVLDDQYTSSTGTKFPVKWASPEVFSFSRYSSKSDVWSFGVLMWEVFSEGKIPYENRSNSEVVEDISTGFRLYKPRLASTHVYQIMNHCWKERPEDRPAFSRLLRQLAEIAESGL

[8] = target: T2, Tyrosine-protein kinase ITK/TSK; remark: listed apart in the source
[9] = Plasma protein binding in human; type: ADME, cell-free; conditions: read-out: PPB (converted)
[10] = octanol/water, pH 7.4, 20 min, 10000 µM

SMILES | Ki [1] | solubility kinetic at 24 h, 10000 µM [2] | logD at 20 min, 10000 µM [3] | other results
O=C(Nc1cnn(Cc2ccccc2)c1)c1n[nH]c2c1CCC1(CC1)C2 | 180 nM | < 1 µM | 3.9 | –
CN(C)CC[C@@H](c1cccc(Cl)c1)n1cc(NC(=O)c2n[nH]c3c2CCC(C)(C)C3)cn1 | 290 nM | 25 µM (≈ 11.4 µg/mL) | 2.7 | –
COC1(C)CCc2c(C(=O)Nc3cnn(Cc4ccccc4)c3)n[nH]c2C1 (centres undefined) | – | – | – | Kinetic_solubility [5]: 29 µM
N#Cc1cccc(Cn2cc(NC(=O)c3n[nH]c4c3CC(c3cn[nH]c3)CC4)cn2)c1 (centres undefined) [listing 1 of 2 here] | – | – | – | Ratio Ki [6]: 23
CC1(C)CCc2c(C(=O)Nc3cnn([C@H](c4ccccc4)C4CCNCC4)c3)n[nH]c2C1 | 19 nM | 102 µM (≈ 44.1 µg/mL) | 1.3 | Papp [4]: 0.1 ×10⁻⁶ cm/s
O=C(Nc1cnn(Cc2ccccc2)c1)c1n[nH]c2c1CCC1(CCOC1)C2 (centres undefined) | – | – | – | Kinetic_solubility [5]: 60 µM
O=C(Nc1cnn(Cc2ccccc2)c1)c1n[nH]c2c1CC1CC1C2 (centres undefined) | 870 nM | – | 2 | Kinetic_solubility [5]: 18 µM
CC12Cc3[nH]nc(C(=O)Nc4cnn(Cc5ccccc5)c4)c3CC1C2 (racemic) | 440 nM | 1.3 µM (≈ 0.452 µg/mL) | 3.8 | –
CC1(C)CCc2c(C(=O)Nc3cnn([C@@H](CCS(C)(=O)=O)c4ccccc4)c3)n[nH]c2C1 | 2100 nM | 14 µM (≈ 6.38 µg/mL) | 2.5 | Ratio Ki [6]: 340; IC50 [8]: 310 nM; Ki [7]: 6.2 nM; Papp [4]: 3.2 ×10⁻⁶ cm/s
CN(C)CC[C@@H](c1ccccc1)n1cc(NC(=O)c2n[nH]c3cc(-c4cn[nH]c4)ccc23)cn1 | 15 nM | 94 µM (≈ 42.7 µg/mL) | – | fraction unbound [9]: 0.03
COC1(C)CCc2c(C(=O)Nc3cnn(Cc4ccccc4)c3)n[nH]c2C1 (racemic) | – | – | 2.2 | Kinetic_solubility [5]: 77 µM
CC1(C)CCc2c(C(=O)Nc3cnn(Cc4ccccc4)c3)n[nH]c2C1 | 480 nM | < 1 µM | 4.3 | Papp [4]: 7.6 ×10⁻⁶ cm/s
CC12Cc3[nH]nc(C(=O)Nc4cnn(Cc5ccccc5)c4)c3CC1C2 (centres undefined) | 54 nM | – | – | Kinetic_solubility [5]: 1.6 µM
O=C(Nc1cnn(Cc2ccccc2)c1)c1n[nH]c2c1CCC(F)(F)C2 | 950 nM | < 1 µM | 3.8 | –
CN(C)C[C@@H](c1ccccc1)n1cc(NC(=O)c2n[nH]c3c2CCC(C)(C)C3)cn1 | 210 nM | 42 µM (≈ 17.1 µg/mL) | 2.7 | Papp [4]: 8.1 ×10⁻⁶ cm/s
O=C(Nc1cnn(Cc2ccccc2)c1)c1n[nH]c2c1CCC1(COC1)C2 | 2900 nM | 78 µM (≈ 28.3 µg/mL) | 2.4 | –
CN(C)CC[C@H](c1ccccc1)n1cc(NC(=O)c2n[nH]c3c2CCC(C)(C)C3)cn1 | – | 49 µM (≈ 20.6 µg/mL) | 2 | –
CC1(CO)CCc2c(C(=O)Nc3cnn(Cc4ccccc4)c3)n[nH]c2C1 (racemic) | 2300 nM | 77 µM (≈ 28.1 µg/mL) | 2.6 | –
CC1(C)CCc2[nH]nc(C(=O)Nc3cnn(Cc4ccccc4)c3)c2C1 | 1700 nM | < 1 µM | 4.3 | –
O=C(Nc1cnn(Cc2ccccc2)c1)c1n[nH]c2c1CCC1(CCOC1)C2 (racemic) | > 5700 nM | – | 2.2 | Kinetic_solubility [5]: 20 µM
Cc1cccc([C@H](CCN(C)C)n2cc(NC(=O)c3n[nH]c4c3CCC(C)(C)C4)cn2)c1 | 500 nM | 72 µM (≈ 31.3 µg/mL) | 2.4 | Papp [4]: 4.3 ×10⁻⁶ cm/s
CC1(CO)CCc2c(C(=O)Nc3cnn(Cc4ccccc4)c3)n[nH]c2C1 (centres undefined) | 200 nM | – | – | logD [10]: 2.7; Kinetic_solubility [5]: 83 µM
N#Cc1cccc(Cn2cc(NC(=O)c3n[nH]c4c3CC(c3cn[nH]c3)CC4)cn2)c1 (racemic) [listing 2 of 2 here] | – | – | – | Ratio Ki [6]: 25

Continued, in another order:

Ki [1] | solubility kinetic at 24 h, 10000 µM [2] | logD at 20 min, 10000 µM [3] | SMILES | other results
– | < 1 µM | 3.4 | N#Cc1cccc(Cn2cc(NC(=O)c3n[nH]c4cc(-c5cn[nH]c5)ccc34)cn2)c1 | Papp [4]: 0.1 ×10⁻⁶ cm/s
870 nM | 5.8 µM (≈ 1.99 µg/mL) | 3 | N#Cc1cccc(Cn2cc(NC(=O)c3n[nH]c4ccccc34)cn2)c1 | Ratio Ki [6]: 20; Ki [7]: 43 nM
220 nM | – | 2.4 | N#Cc1cccc(Cn2cc(NC(=O)c3n[nH]c4c3CC(c3cn[nH]c3)CC4)cn2)c1 (centres undefined) [listing 2 of 2 here] | IC50 [8]: 2200 nM; Ki [7]: 9.4 nM
520 nM | – | – | CC1CCc2c(C(=O)Nc3cnn(Cc4ccccc4)c3)n[nH]c2C1 (centres undefined) | –
2000 nM | 13 µM (≈ 4.33 µg/mL) | – | O=C(Nc1cnn(Cc2ccccc2)c1)c1n[nH]c2c1CC1CC1C2 (racemic) | logD [10]: 2.5
210 nM | < 1 µM | – | N#Cc1cccc(Cn2cc(NC(=O)c3n[nH]c4c3CC(c3cn[nH]c3)CC4)cn2)c1 (racemic) [listing 1 of 2 here] | IC50 [8]: 1700 nM; logD [10]: 2.5; Ki [7]: 8.3 nM
780 nM | 14 µM (≈ 4.85 µg/mL) | 2.6 | N#Cc1cccc(Cn2cc(NC(=O)c3n[nH]c4c3CCCC4)cn2)c1 | Ratio Ki [6]: 26
1100 nM | < 1 µM | 4 | CC1CCc2c(C(=O)Nc3cnn(Cc4ccccc4)c3)n[nH]c2C1 (racemic) | –
